These results are taken from article PMC3016297 (Bioorganic & medicinal chemistry, 2010).

Molecules are shown by their SMILES. Where two headings read alike, the source gives them in different places. Bounds are passed on as bounds.

Assay [1] deals with mock-infected MT-4 cell. Description: Growth inhibition of mock-infected MT-4 cells. Format: cell-based. The settings on record: Homo sapiens, MT4, read-out: IC50, concentration that inhibits mock-infected MT-4 cell growth by 50%.
The next assay has as its system HIV-1IIIB. The settings on record: cited from earlier work; for EC50: HIV-1IIIB infected H9 lymphocytes.
Assay [2] has as its system mock-infected MT-4 cell. The settings on record: read-out: IC50, concentration that inhibits mock-infected MT-4 cell growth by 50%; mock-infected MT-4 cells; cited from earlier work.
The next assay relates to HIV-1NL4-3. Description: HIV-1NL4-3 inhibition assay in MT-4 lymphocytes. The settings on record: HIV-1NL4-3 infected MT-4 cells; for fold more active than the corresponding compound not linked to AZT: 49 vs 63, 52 vs 64. The format is cell-based.

With `C=C(C)[C@@H]1CC[C@]2(COC(=O)CCCC(=O)O)CC[C@]3(C)[C@H](CC[C@@H]4[C@@]5(C)CC[C@H](OC(=O)CC(C)(C)C(=O)O)C(C)(C)[C@@H]5CC[C@]43C)[C@@H]12` [Compound 64], the IC50 with mock-infected MT-4 cell [1] was greater than 14600 nM.

Turning to `CC(C)[C@@H]1CC[C@]2(CO)CC[C@]3(C)[C@H](CC[C@@H]4[C@@]5(C)CC[C@H](OC(=O)CCCC(=O)O)C(C)(C)[C@@H]5CC[C@]43C)[C@@H]12` [Compound 4, 3-O-glutaryldihydrobetulin], the EC50 with HIV-1IIIB is 0.02 nM.

For `C=C(C)[C@@H]1CC[C@]2(COC(=O)CC(C)(C)CC(=O)O)CC[C@]3(C)[C@H](CC[C@@H]4[C@@]5(C)CC[C@H](OC(=O)CC(C)(C)CC(=O)O)C(C)(C)[C@@H]5CC[C@]43C)[C@@H]12` [Compound 5, 3,28-di-O-(3',3'-dimethylglutaryl)betulin], in the assay on HIV-1IIIB, the EC50 was 0.66 nM.

For the compound `C=C(C)[C@@H]1CC[C@]2(C(=O)O)CC[C@]3(C)[C@H](CC[C@@H]4[C@@]5(C)CC[C@H](OC(=O)CC(C)(C)C(=O)O)C(C)(C)[C@@H]5CC[C@]43C)[C@@H]12` [Compound 2, 3-O-(3',3'-dimethylsuccinyl)betulinic acid], in the assay on HIV-1IIIB, the EC50 is less than 0.35 nM. Moreover, in the assay with mock-infected MT-4 cell [2], the IC50 was greater than 5000 nM. As for `C=C(C)[C@@H]1CC[C@]2(COC(=O)CCC(=O)OC[C@H]3O[C@@H](n4cc(C)c(=O)[nH]c4=O)C[C@@H]3N=[N+]=[N-])CC[C@]3(C)[C@H](CC[C@@H]4[C@@]5(C)CC[C@H](OC(=O)CC(C)(C)C(=O)O)C(C)(C)[C@@H]5CC[C@]43C)[C@@H]12` [Compound 49, 3'-Azido-3'-deoxythymidine-5'-yl 3-O-(3',3'-dimethylsuccinyl)-lup-20(29)en-28-yl succinate], in the assay with HIV-1NL4-3, the “fold more active than the corresponding compound not linked to AZT” value is “four”. With `Cc1cn([C@H]2C[C@H](N=[N+]=[N-])C(COC(=O)CC(C)(C)CC(=O)OC[C@]34CC[C@@H](C(C)C)[C@@H]3[C@H]3CC[C@@H]5[C@@]6(C)CC[C@H](OC(=O)CC(C)(C)CC(=O)O)C(C)(C)[C@@H]6CC[C@@]5(C)[C@]3(C)CC4)O2)c(=O)[nH]c1=O` (stereo partly drawn) [Compound 62, 3'-Azido-3'-deoxythymidine-5'-yl 3-O-(3',3'-dimethylglutaryl)-lup-28-yl 3,3-dimethylglutarate], the “anti-HIV activity in words” value in the assay on HIV-1NL4-3 was “only moderate activity”. Same read-out and setting: next, `Cc1cn([C@H]2C[C@H](N=[N+]=[N-])C(COC(=O)CC(C)(C)CC(=O)OC[C@]34CC[C@@H](C(C)C)[C@@H]3[C@H]3CC[C@@H]5[C@@]6(C)CC[C@H](OC(=O)CCCC(=O)O)C(C)(C)[C@@H]6CC[C@@]5(C)[C@]3(C)CC4)O2)c(=O)[nH]c1=O` (stereo partly drawn) [Compound 61, 3'-Azido-3'-deoxythymidine-5'-yl 3-O-glutaryl-lup-28-yl 3,3-dimethylglutarate]: “the weakest compound”. For `C=C(C)[C@@H]1CC[C@]2(COC(=O)CCCC(=O)OC[C@H]3O[C@@H](n4cc(C)c(=O)[nH]c4=O)C[C@@H]3N=[N+]=[N-])CC[C@]3(C)[C@H](CC[C@@H]4[C@@]5(C)CC[C@H](OC(=O)CC(C)(C)C(=O)O)C(C)(C)[C@@H]5CC[C@]43C)[C@@H]12` [Compound 52, 3'-Azido-3'-deoxythymidine-5'-yl 3-O-(3',3'-dimethylsuccinyl)-lup-20(29)en-28-yl glutarate], the “fold more active than the corresponding compound not linked to AZT” value with HIV-1NL4-3 is “five”. Regarding `C=C(C)[C@@H]1CC[C@]2(COC(=O)C(C)(C)CC(=O)O)CC[C@]3(C)[C@H](CC[C@@H]4[C@@]5(C)CC[C@H](OC(=O)CC(C)(C)C(=O)O)C(C)(C)[C@@H]5CC[C@]43C)[C@@H]12` [Compound 6, 3-O-(3',3'-dimethylsuccinyl)-28-O-(2",2"-dimethylsuccinyl)betulin], the “fold more potent against HIV replication than its isomer with a 3,3-dimethylsuccinyl side chain at C-28” value in the assay with HIV-1IIIB (H9 lymphocytes assay) is recorded as 230 fold. The EC50 in the assay with HIV-1IIIB was 0.87 nM.

On to `C=C(C)[C@@H]1CC[C@]2(COC(=O)CC(C)(C)CC(=O)OC[C@H]3O[C@@H](n4cc(C)c(=O)[nH]c4=O)C[C@@H]3N=[N+]=[N-])CC[C@]3(C)[C@H](CC[C@@H]4[C@@]5(C)CC[C@H](OC(=O)CC(C)(C)CC(=O)O)C(C)(C)[C@@H]5CC[C@]43C)[C@@H]12` [Compound 54, 3'-Azido-3'-deoxythymidine-5'-yl 3-O-(3',3'-dimethylglutaryl)-lup-20(29)en-28-yl 3,3-dimethylglutarate], for which, in the assay with HIV-1NL4-3, the “anti-HIV activity in words” value is recorded as “only moderate activity”.
